These results are taken from US20130149740A1, “METHOD FOR THE PRODUCTION OF A POLYMERIZED PRODUCT” (Baxter Healthcare S.A., priority 2011, published 2013).

The nature of series [1]: Viscosity and estimated capillary number of fibrin sealant components and mixes (squeezing regime). Format: physicochemical. The conditions noted are these: at 130 s^−1. As to the method: For these experiments, the experimental device and set-up was the same as described above. However, the liquid which is segmented by air is a mix. Raw products are fibrinogen (with methylene blue as coloring agent) and thrombin from TISSEEL kit which have to be mixed prior to segmentation. A Duploject system was applied which can be completed with a mixing device upstream the T-junction.
Under the “squeezing” regime of segmentation, the viscosities in the following table are calculated for different components, as well as the corresponding capillary numbers for mixes.

The nature of series [2]: Doxorubicin living time (stability), concentration followed by fluorescence. Format: physicochemical. As to conditions: in presence of fibrin. From the text: DX has some fluorescence properties which can easily be used to measure its concentration in a solution. Indeed, excited with a 470 nm light, it emits a 593 light which intensity depends on DX concentration.

In the case of `[Ca+2].[Cl-].[Cl-]` [CaCl2 (40 μmol/ml), CaCl2], in series [1], the Viscosity is listed as 1.3 cP. As for `COc1cccc2c1C(=O)c1c(O)c3c(c(O)c1C2=O)C[C@@](O)(C(=O)CO)C[C@@H]3O[C@H]1C[C@H](N)[C@H](O)[C@H](C)O1` [DX, Doxorubicin], in series [2], the DX living time result is reported as “higher than 14 days”.
